Measurements as given in publication PMC6151726, “Design and Antiproliferative Evaluation of Novel Sulfanilamide Derivatives as Potential Tubulin Polymerization Inhibitors” (Molecules : A Journal of Synthetic Chemistry and Natural …, 2017).
Converted amounts (≈) assume the structure as drawn. Like-named read-outs stand apart in the source and are kept apart here.

Assays:
[1] = system: PC-3 (human prostate cancer cell line); assay: MTT antiproliferative assay, PC-3; assay type: cell-based; conditions: exposure for 48 h, means ± SDs of three independent experiments
Description: (§1) All synthesized sulfonamide-1,2,3-triazole hybrids were evaluated for their anticancer activity against three cancer cell lines: MGC-803 (human gastric cancer cell line), MCF-7 (human breast cancer cell line), and PC-3 (human prostate cancer cell line) using a MTT (4,5-dimethyl-2-thiazolyl)-2,5-diphenyl-2-H-tetrazolium bromide) assay. The well-known tubulin polymerization inhibitor CA-4P was used as a control. In [24], 5-fluorouracil (5-Fu) was selected as the control in the antiproliferative evaluation assay of 1,2,3-triazole derivatives. Therefore, 5-Fu was also used as the reference drug in this MTT assay.
(§2) MGC-803 cells (human gastric cancer), MCF-7 (human breast cancer), PC-3 (human prostate cancer) and GES-1 (human gastric epithelial cell) were cultured in RPMI 1640 medium with 10% FBS and 100 U/mL penicillin and 0.1 mg/mL streptomycin in the 37 °C in an atmosphere containing 5% CO2. All cell lines were purchased from the China Center for Type Culture Collection (CCTCC, Shanghai, China). For pharmacological investigations, 10 mM stock solutions of the tested compounds were prepared with dimethyl sulfoxide (DMSO). […] The MTT assay was prepared according to the previous method.

[2] = system: MGC-803 (human gastric cancer cell line); assay: MTT antiproliferative assay, MGC-803; assay type: cell-based; conditions: exposure for 48 h, means ± SDs of three independent experiments
Description: as §1, §2

[3] = system: MCF-7 (human breast cancer cell line); assay: MTT antiproliferative assay, MCF-7; assay type: cell-based; conditions: MCF7, exposure for 48 h, means ± SDs of three independent experiments
Description: as §1, §2

murine leukemia = system: murine leukemia; set-up: method as in PMID 26501246; conditions: read-out: IC50 against the proliferation of murine leukemia; cited from earlier work
PC3 cells = system: PC3 cells; set-up: method as in PMID 27423028; conditions: read-out: IC50 against PC3 cells; cited from earlier work
CDK1 = system: CDK1; set-up: method as in PMID 28005359; conditions: cited from earlier work
CDK2 = system: CDK2; set-up: method as in PMID 28005359; conditions: cited from earlier work
4T1 mammary tumor cells = conditions: 45 mg/kg; cited from earlier work
A2780AD cell line = system: A2780AD cell line; set-up: method as in PMID 28640209; conditions: read-out: IC50 antiproliferative activity against A2780AD cell line; cited from earlier work
[4] = system: HCT116 human colon carcinoma; set-up: method as in PMID 10508428; conditions: cell proliferation assay; cited from earlier work
[5] = system: MGC-803, MCF-7 and PC-3 cells; assay: MTT antiproliferative assay, three cancer cell lines together; assay type: cell-based; conditions: Homo sapiens; range over MGC-803, MCF-7 and PC-3; read-out: IC50 values ranging over three cell lines
Description: as §1, §2

[6] = MTT assay on normal cells, GES-1; assay type: cell-based; conditions: GES-1 cells (normal gastric epithelial cell line), normal human gastric epithelial cell line, read-out: inhibitory effect / cytotoxicity against GES-1
Description: Compound 11f was further examined for possible inhibitory effects against GES-1 (normal human gastric epithelial cell line).
as §2

tubulin [7] = assay: In vitro tubulin polymerization inhibition assay; assay type: biochemical; conditions: 5.6 mg/mL tubulin in PEM buffer, read-out: inhibitory concentration that reduced the polymerized tubulin by 50% (IC50)
Description: The inhibitory concentrations that reduced the polymerized tubulin by 50% of CA-4P was 2.40 μM [25]. To investigate whether the synthesized 1,2,3-triazole-sulfonamide hybrids target the tubulin-microtubule system, the in vitro tubulin polymerization inhibition activity of compound 11f was evaluated because of its best antiproliferative activity results among all the tested compounds in the initial cytotoxicity screening. When tubulin was incubated with the tested 1,2,3-triazole-sulfonamide 11f at the indicated concentrations, an increased fluorescence intensity was obvious.
Tubulin polymerization in vitro was assyed with 100 μL samples and monitored by absorbance at 350 nm (Filter A00019x) in 96-well plates with an Appliskan plate reader (Thermo Fisher Scientific, Waltham, MA, USA). An amount of 5.6 mg/mL tubulin was resuspended in PEM buffer (80 mM PIPES (pH 6.9), 1 mM EGTA, 0.5 mM MgCl2, […], 10.2% (v/v) glycerol) and then was preincubated with compound 11f or vehicle DMSO on ice. Data were exported using the Thermo Scientific SkanIt software of the Appliskan (version 2.3) and Excel software was used to generate plots. For convenience, data were normalized to the minimum absorbance value of the initial stable plateau. This tubulin polymerization inhibition assay was measured according to the method originally.

tubulin [8] = system: tubulin; set-up: method as in PMID 24923521; conditions: read-out: IC50 inhibition of tubulin assembly; cited from earlier work

Compound | melting point [°C] | IC50 ([1]; Homo sapiens, 48 h) [µM] | IC50 [2] [µM] | IC50 [3] [µM] | other results
O=c1[nH]cc(F)c(=O)[nH]1 [5-Fu, 5-Fluorouracil, reference compound] | – | 13.9 ± 1.5 | 15.6 ± 0.4 | 21.2 ± 3.6 | –
Nc1nc(Cl)c2ncn(Cc3cn(C[C@H](OCc4ccccc4)[C@@H](O)P(=O)(OCc4ccccc4)OCc4ccccc4)nn3)c2n1 [compound 5] | – | – | – | – | IC50 (murine leukemia): 21 µM
O=S1(=O)CCCN(S(=O)(=O)c2ccc(-c3cnc(C4CC4)o3)cc2)c2ccccc21 [BA-3P] | – | – | – | – | IC50 (PC3 cells): 5.88 µM
NS(=O)(=O)c1ccc(Nc2nc(-c3cccc(-c4ccccc4)c3)c3nc[nH]c3n2)cc1 [compound 3] | – | – | – | – | fold less active toward CDK1 than CDK2 (CDK1; CDK1 vs CDK2): ~ 2000 fold; IC50 (CDK1): 86 µM; IC50 (CDK2): 0.044 µM
NS(=O)(=O)c1ccc(NC(=O)Nc2cccc([N+](=O)[O-])c2)cc1 [compound 1] | – | – | – | – | formation of metastases by 4T1 mammary tumor cells (4T1 mammary tumor cells): significantly inhibited the formation of metastases
Quinolin-6-yloxyacetamide | – | – | – | – | IC50 (A2780AD cell line): 0.262 µM
NS(=O)(=O)c1ccc(S(=O)(=O)Nc2cccc3c(Cl)c[nH]c23)cc1 [compound 4, N-(3-chloro-7-indolyl)-1,4-benzenedisulfonamide] | – | – | – | – | IC50 against HCT116 human colon carcinoma [4]: 0.11 µg/mL (≈ 0.285 µM)
COc1cc2c(cc1O)CC[C@@H]1[C@@H]2CC[C@@]2(C)[C@H]1CC[C@@]2(O)c1cn(-c2ccc(OC(F)(F)F)cc2)nn1 [compound 7] | – | – | – | – | IC50 (tubulin [8]): 5.9 µM

The next lines start with results.

melting point [°C] | IC50 ([1]; Homo sapiens, 48 h) [µM] | IC50 [2] [µM] | IC50 [3] [µM] | Compound | other results
137 to 139 | 7.1 ± 0.5 | > 100 | 54.9 ± 1.7 | CC(C)(C)c1ccc(S(=O)(=O)NCc2cn(Cc3cccc(Oc4ccccc4)c3)nn2)cc1 [11g, 4-(Tert-butyl)-N-((1-(3-phenoxybenzyl)-1H-1,2,3-triazol-4-yl)methyl)benzenesulfonamide] | –
145 to 147 | > 100 | 41.3 ± 2.3 | > 100 | Cc1ccc(S(=O)(=O)NCc2cn(Cc3cccc(C#N)c3)nn2)cc1 [11j, N-((1-(3-Cyanobenzyl)-1H-1,2,3-triazol-4-yl)methyl)-4-methylbenzenesulfonamide] | –
97 to 99 | 22.7 ± 0.5 | 15.3 ± 0.5 | 77.5 ± 0.7 | O=S(=O)(NCc1cn(Cc2cccc(Oc3ccccc3)c2)nn1)c1ccccc1Cl [11i, 2-Chloro-N-((1-(3-phenoxybenzyl)-1H-1,2,3-triazol-4-yl)methyl) benzenesulfonamide] | –
112 to 114 | > 100 | 77.2 ± 7.8 | > 100 | COc1cccc(Cn2cc(CNS(=O)(=O)c3ccc(C)cc3)nn2)c1 [11l, N-((1-(3-Methoxybenzyl)-1H-1,2,3-triazol-4-yl)methyl)-4-methylbenzenesulfonamide] | –
193 to 196 | > 100 | > 100 | > 100 | C#CCNS(=O)(=O)c1ccc2oc(=O)ccc2c1 [9d, 2-Oxo-N-(prop-2-yn-1-yl)-2H-chromene-6-sulfonamide] | –
127 to 130 | 6.4 ± 1.2 | 21.7 ± 0.1 | 39.6 ± 5 | O=S(=O)(NCc1cn(Cc2cccc(Oc3ccccc3)c2)nn1)c1ccccc1 [11e, N-((1-(3-Phenoxybenzyl)-1H-1,2,3-triazol-4-yl)methyl)benzenesulfonamide] | –
104 to 106 | 24.6 ± 0.9 | 17 ± 1.8 | 78.5 ± 2.2 | O=S(=O)(NCc1cn(Cc2cccc(Oc3ccccc3)c2)nn1)c1cccs1 [11a, N-((1-(3-Phenoxybenzyl)-1H-1,2,3-triazol-4-yl)methyl)thiophene-2-sulfonamide] | –
145 to 148 | > 100 | 75.8 ± 0.6 | > 100 | Cc1ccc(S(=O)(=O)NCc2cn(Cc3cccc(C)c3)nn2)cc1 [11k, 4-Methyl-N-((1-(3-methylbenzyl)-1H-1,2,3-triazol-4-yl)methyl)benzenesulfonamide] | –
111 to 112 | 49.4 ± 1 | 31 ± 2.2 | 34.7 ± 2.6 | O=S(=O)(NCc1cn(Cc2cccc(Oc3ccccc3)c2)nn1)c1ccc(Br)s1 [11c, 5-Bromo-N-((1-(3-phenoxybenzyl)-1H-1,2,3-triazol-4-yl)methyl)thiophene-2-sulfonamide] | –
– | > 100 | > 100 | > 100 | C#CCNS(=O)(=O)c1cccs1 [9a, N-(Prop-2-yn-1-yl)thiophene-2-sulfonamide] | –
144 to 146 | 34.1 ± 0.3 | 88.8 ± 0.5 | 36.4 ± 2 | O=c1ccc2cc(S(=O)(=O)NCc3cn(Cc4cccc(Oc5ccccc5)c4)nn3)ccc2o1 [11d, 2-Oxo-N-((1-(3-phenoxybenzyl)-1H-1,2,3-triazol-4-yl)methyl)-2H-chromene-6-sulfonamide] | IC50 [5]: 34.1 to 88.8 µM
– | > 100 | > 100 | > 100 | C#CCNS(=O)(=O)c1ccc(C)cc1 [9f, 4-Methyl-N-(prop-2-yn-1-yl)benzenesulfonamide] | –
118 to 121 | 4.08 | 13.7 ± 2.9 | 15.7 ± 0.2 | Cc1ccc(S(=O)(=O)NCc2cn(Cc3cccc(Oc4ccccc4)c3)nn2)cc1 [11f, 4-Methyl-N-((1-(3-phenoxybenzyl)-1H-1,2,3-triazol-4-yl)methyl)benzenesulfonamide] | IC50 [6]: > 64 µM; IC50 [1]: 4.1 ± 1.4 µM; IC50 [5]: 4.1 to 15.7 µM; IC50 (tubulin [7]): 2.41 µM
111 to 113 | 24.7 ± 3 | 18.4 ± 0.7 | 24.6 ± 1.6 | Cc1cc(C)c(S(=O)(=O)NCc2cn(Cc3cccc(Oc4ccccc4)c3)nn2)c(C)c1 [11h, 2,4,6-Trimethyl-N-((1-(3-phenoxybenzyl)-1H-1,2,3-triazol-4-yl)methyl)benzenesulfonamide] | –
110 to 111 | 19.8 ± 0.6 | 15.3 ± 0.8 | 49.9 ± 1.2 | O=S(=O)(NCc1cn(Cc2cccc(Oc3ccccc3)c2)nn1)c1ccc(Cl)s1 [11b, 5-Chloro-N-((1-(3-phenoxybenzyl)-1H-1,2,3-triazol-4-yl)methyl)thiophene-2-sulfonamide] | –
